Assay results reported in PubChem BioAssay AID280 (DTP/NCI, 2004).
Several values for one entry are separate records, joined by “and”; a condition that tells them apart may be missing. Identical values can stand only once. Toxic doses and inconclusive results are not listed. The calls were made as follows: active = survival T/C of 150% or more; inactive = T/C below 125% in these data. Starred links: 1 amine or outer side, 2 acyl side, 3 side chain; linkers in the order of their positions; H or OH if unused. Positions of bridges follow the written chain, without caps; N, C: chain ends. Non-standard residues stand in square brackets, D forms with d. Residues, ends and D or L forms follow the SMILES beside them. Chains are numbered I, II in the order given. Actinocin(9to1) = Cc1c2oc3c(C)ccc(C(=O)[*:1])c3nc-2c(C(=O)[*:2])c(N)c1=O; aThr = C[C@H](O)[C@H](N)C(=O)O; NMeV = CN[C@H](C(=O)O)C(C)C; Sar = CNCC(=O)O

Test system: nude mice, LOX melanoma ip, survival T/C
Assay: NCI In Vivo Anticancer Drug Screen. Data for tumor model Human Amelanotic Melanoma (LOX) (intraperitoneal) in NU/NU BALB/C (nude) mice
Conditions: endpoint: median survival time, higher = longer survival
Description: The antitumor activity of compounds was measured in mice bearing transplantable tumors. Survival or tumor size were measured and the results are expressed as the measurement made in the treated group (T) divided by the measurement made in the vehicle treated control group (C). The tumor model used in this assay is Human Amelanotic Melanoma (LOX) (intraperitoneal) in NU/NU BALB/C (nude) mice

[1] = dose: 6.25 mg/kg/injection, schedule: Q04DX003 (ip), vehicle: water
[2] = dose: 25.0 mg/kg/injection, schedule: Q04DX003 (ip), vehicle: saline with Tween-80
[3] = dose: 50.0 mg/kg/injection, schedule: Q04DX003 (ip), vehicle: saline with Tween-80
[4] = dose: 18.75 mg/kg/injection, schedule: Q04DX003 (ip), vehicle: water
[5] = dose: 12.5 mg/kg/injection, schedule: Q04DX003 (ip), vehicle: saline with Tween-80
[6] = dose: 12.5 mg/kg/injection, schedule: Q04DX003 (ip), vehicle: saline
[7] = dose: 25.0 mg/kg/injection, schedule: Q04DX003 (ip), vehicle: saline

Measured: T/C

O=NNc1cccnc1
inactive: [1] 100 % of control and 101 % of control | dose: 12.5 mg/kg/injection, schedule: Q04DX003 (ip), vehicle: water 109 % of control and 101 % of control | dose: 25.0 mg/kg/injection, schedule: Q04DX003 (ip), vehicle: water 113 % of control and 98 % of control | dose: 50.0 mg/kg/injection, schedule: Q04DX003 (ip), vehicle: water 114 % of control and 96 % of control | dose: 100.0 mg/kg/injection, schedule: Q04DX003 (ip), vehicle: water 103 % of control and 117 % of control

O=NNc1ccc(Cl)cn1
inactive: dose: 2.5 mg/kg/injection, schedule: Q04DX003 (ip), vehicle: water 105 % of control | dose: 3.13 mg/kg/injection, schedule: Q04DX003 (ip), vehicle: water 111 % of control | dose: 5.0 mg/kg/injection, schedule: Q04DX003 (ip), vehicle: water 101 % of control | [1] 112 % of control | dose: 10.0 mg/kg/injection, schedule: Q04DX003 (ip), vehicle: water 118 % of control | dose: 20.0 mg/kg/injection, schedule: Q04DX003 (ip), vehicle: water 124 % of control

Cc1ccoc1
inactive: [2] 94 % of control | [3] 95 % of control | dose: 100.0 mg/kg/injection, schedule: Q04DX003 (ip), vehicle: saline with Tween-80 102 % of control | dose: 200.0 mg/kg/injection, schedule: Q04DX003 (ip), vehicle: saline with Tween-80 95 % of control | dose: 400.0 mg/kg/injection, schedule: Q04DX003 (ip), vehicle: saline with Tween-80 96 % of control

CNC(=S)SC1=NS(=O)(=O)c2ccccc2N1
inactive: dose: 50.0 mg/kg/injection, schedule: Q04DX003 (ip), vehicle: Klucel (hydroxypropylcellulose) (HPC) 100 % of control | dose: 100.0 mg/kg/injection, schedule: Q04DX003 (ip), vehicle: Klucel (hydroxypropylcellulose) (HPC) 104 % of control | dose: 200.0 mg/kg/injection, schedule: Q04DX003 (ip), vehicle: Klucel (hydroxypropylcellulose) (HPC) 104 % of control

Cc1c2oc3c(C)ccc(C(=O)N[C@@H]4C(=O)N[C@H](C(C)C)C(=O)N5CCC[C@H]5C(=O)N(C)CC(=O)N(C)[C@@H](C(C)C)C(=O)O[C@H]4C)c3nc-2c(C(=O)N[C@@H]2C(=O)N[C@H](C(C)C)C(=O)N3CCC[C@H]3C(=O)N(C)CC(=O)N(C)[C@@H](C(C)C)C(=O)O[C@H]2C)c(N)c1=O (I: [aThr][dV]P[Sar][NMeV] / II: [aThr][dV]P[Sar][NMeV]; ester I:1-I:C, II:1-II:C; linker I:N-II:N via Actinocin(9to1))
active: dose: 0.07 mg/kg/injection, schedule: Q04DX003 (ip), vehicle: saline 185 % of control | dose: 0.13 mg/kg/injection, schedule: Q01DX001 (ip), vehicle: saline 151 % of control | dose: 0.13 mg/kg/injection, schedule: Q04DX003 (ip), vehicle: saline 269 % of control | dose: 0.25 mg/kg/injection, schedule: Q01DX001 (ip), vehicle: saline 153 % of control | dose: 0.25 mg/kg/injection, schedule: Q04DX003 (ip), vehicle: saline 337 % of control | dose: 0.5 mg/kg/injection, schedule: Q01DX001 (ip), vehicle: saline 264 % of control | dose: 0.5 mg/kg/injection, schedule: Q04DX003 (ip), vehicle: saline 337 % of control | dose: 1.0 mg/kg/injection, schedule: Q01DX001 (ip), vehicle: saline 337 % of control | dose: 0.13 micrograms/kg/injection, schedule: Q01DX005 (ip), vehicle: saline 162 % of control | dose: 0.13 micrograms/kg/injection, schedule: Q01DX015 (ip), vehicle: saline 207 % of control | dose: 25.0 micrograms/kg/injection, schedule: Q01DX005 (ip), vehicle: saline 191 % of control | dose: 25.0 micrograms/kg/injection, schedule: Q01DX015 (ip), vehicle: saline 337 % of control | dose: 50.0 micrograms/kg/injection, schedule: Q01DX005 (ip), vehicle: saline 337 % of control | dose: 50.0 micrograms/kg/injection, schedule: Q01DX015 (ip), vehicle: saline 337 % of control | dose: 100.0 micrograms/kg/injection, schedule: Q01DX005 (ip), vehicle: saline 337 % of control | dose: 100.0 micrograms/kg/injection, schedule: Q01DX015 (ip), vehicle: saline 337 % of control
inactive: dose: 1.3 mg/kg/injection, schedule: Q04DX003 (ip), vehicle: saline 87 % of control

c1ccc2c3c(c4c(c2c1)CN(C1CCCCC1)CO4)OCN(C1CCCCC1)C3
inactive: [4] 102 % of control | dose: 37.5 mg/kg/injection, schedule: Q04DX003 (ip), vehicle: water 107 % of control | dose: 75.0 mg/kg/injection, schedule: Q04DX003 (ip), vehicle: water 123 % of control

CO[C@@]12[C@@H]3N[C@@H]3CN1C1=C(C(=O)C(NCCc3ccccn3)=C(C)C1=O)[C@@H]2COC(N)=O
active: dose: 1.5 mg/kg/injection, schedule: Q04DX003 (ip), vehicle: saline with Tween-80 187 % of control | dose: 3.12 mg/kg/injection, schedule: Q04DX003 (ip), vehicle: saline with Tween-80 192 % of control | dose: 3.13 mg/kg/injection, schedule: Q04DX003 (ip), vehicle: saline with Tween-80 159 % of control | dose: 6.25 mg/kg/injection, schedule: Q04DX003 (ip), vehicle: saline with Tween-80 179 % of control and 198 % of control | [5] 317 % of control and 340 % of control | [2] 317 % of control and 340 % of control

CC(=O)O[C@H]1C(=O)[C@@]2(C)C(C(OC(=O)c3ccccc3)[C@]3(O)C[C@H](OC(=O)C(OC(=O)CCCC(=O)NCCCN(C)C)C(NC(=O)c4ccccc4)c4ccccc4)C(C)=C1C3(C)C)C1(OC(C)=O)COC1C[C@@H]2O (stereo not given in full)
active: dose: 2.5 mg/kg/injection, schedule: Q01DX009 (ip), vehicle: water 155 % of control | dose: 5.0 mg/kg/injection, schedule: Q01DX009 (ip), vehicle: water 156 % of control | dose: 10.0 mg/kg/injection, schedule: Q01DX009 (ip), vehicle: water 157 % of control and 225 % of control | dose: 20.0 mg/kg/injection, schedule: Q01DX009 (ip), vehicle: water 205 % of control and 310 % of control

COc1cccc2c1C(CO)N1C(C#N)C3CC(C(=O)O)C(C1C2)N3C (stereo not given)
active: [6] 175 % of control | dose: 12.5 mg/kg/injection, schedule: Q04DX003 (ip), vehicle: suspension in saline 164 % of control | [7] 157 % of control

CCOC(=O)C(N)C[S][Sn]([CH3])([CH3])[Cl] (stereo not given)
inactive: [5] 99 % of control | [2] 101 % of control | [3] 104 % of control

CCN(CC)CC(=O)O[C@]1(CC)C(=O)OCc2c1cc1n(c2=O)Cc2cc3ccccc3nc2-1
active: [4] 239 % of control

COc1cc2c(c(OC)c1OC)-c1cccc(=O)cc1C(NC(C)=O)CC2 (stereo not given)
inactive: [6] 104 % of control | [7] 122 % of control | dose: 50.0 mg/kg/injection, schedule: Q04DX003 (ip), vehicle: saline 110 % of control | dose: 100.0 mg/kg/injection, schedule: Q04DX003 (ip), vehicle: saline 106 % of control | dose: 200.0 mg/kg/injection, schedule: Q04DX003 (ip), vehicle: saline 103 % of control

Cc1ccc2nc(-c3ccc4nc(-c5ccc(N=Nc6ccc(-c7nc8ccc(-c9nc%10ccc(C)c(S(=O)(=O)O)c%10s9)cc8s7)cc6)cc5)sc4c3)sc2c1S(=O)(=O)O
inactive: dose: 75.0 mg/kg/injection, schedule: Q04DX003 (ip), vehicle: suspension in saline 92 % of control | dose: 150.0 mg/kg/injection, schedule: Q04DX003 (ip), vehicle: suspension in saline 96 % of control

Nc1ccc(S(=O)(=O)Nc2cnc3c(Cl)cccc3n2)cc1
inactive: dose: 89.1 mg/kg/injection, schedule: Q06HX002 (ip), vehicle: other 103 % of control | dose: 133.5 mg/kg/injection, schedule: Q01DX001 (ip), vehicle: other 88 % of control | dose: 133.5 mg/kg/injection, schedule: Q01DX005 (ip), vehicle: other 109 % of control | dose: 133.5 mg/kg/injection, schedule: Q06HX002 (ip), vehicle: other 103 % of control | dose: 200.2 mg/kg/injection, schedule: Q01DX001 (ip), vehicle: other 98 % of control | dose: 200.2 mg/kg/injection, schedule: Q01DX005 (ip), vehicle: other 114 % of control | dose: 200.2 mg/kg/injection, schedule: Q06HX002 (ip), vehicle: other 114 % of control | dose: 300.2 mg/kg/injection, schedule: Q01DX001 (ip), vehicle: other 104 % of control | dose: 300.2 mg/kg/injection, schedule: Q01DX005 (ip), vehicle: other 116 % of control | dose: 300.2 mg/kg/injection, schedule: Q06HX002 (ip), vehicle: other 111 % of control | dose: 450.0 mg/kg/injection, schedule: Q01DX001 (ip), vehicle: other 110 % of control | dose: 674.7 mg/kg/injection, schedule: Q01DX001 (ip), vehicle: other 119 % of control
